Reference: paper PMC5137954, “Importance of measuring testosterone in enzyme-inhibited plasma for oral testosterone undecanoate androgen replacement therapy clinical trials” (Future Science OA, 2015)

Legend:
[1] = Stability of T and DHT in NaF/Na2EDTA plasma in presence of TU, DHTU and glucuronides (method validation); settings: for increase of the T and DHT concentrations (degradation of TU and DHTU into T or DHT): low and high QCs, room temperature or 4°C, long-term storage at -20 and -80°C; for % Bias of testosterone concentration / % Bias of dihydrotestosterone concentration: DHTU and glucuronides
Description: The methods were validated as per the most recent US FDA and EMA validation guidelines. During the method validation, the accuracy, precision, within-run, between-run, selectivity, matrix effect as well as the stability (stability in whole blood at 4°C, short-term stability in matrix at room temperature, freeze–thaw stability at -20°C/-80°C, long-term stability at -20°C/-80°C) were evaluated.
The impact of the glucuronide was also assessed in whole blood during sample collection and handling.
Moreover, the possible degradation of TU and DHTU into T or DHT was assessed when low and high T and DHT level quality controls were submitted to freeze–thaw cycles, incubation at room temperature or 4°C and long-term storage at -20 and -80°C.
Low QC samples were fortified with testosterone undecanoate (3000 ng/dL), dihydrotestosterone undecanoate (1500 ng/dL), testosterone glucuronide (800 ng/dL) and dihydrotestosterone undecanoate (400 ng/dL). High QC samples were fortified with testosterone undecanoate (219000 ng/dL), dihydrotestosterone undecanoate (235100 ng/dL), testosterone glucuronide (93600 ng/dL) and dihydrotestosterone undecanoate (21900 ng/dL). The%Bias must be within 15%.

[2] = Clinical study of oral TU: T and DHT in serum versus NaF/Na2 EDTA plasma; settings: day 84, oral TU twice daily, fed, 15 hypogonadal men; serum vs NaF-Na2 EDTA plasma
Description: A clinical study was performed at the inVentiv Health Clinical facilities where fifteen asymptomatic hypogonadal male subjects aged 18 to 75 years were administered an oral dose of TU twice daily for 84 consecutive days under fed conditions. Each volunteer was informed on the risk of procedure and risk of the clinical study by signing the informed consent. On day 84, serum and plasma samples were collected predose and at 1.5, 3, 4, 5, 6, 8, 10, 12, 13.5, 15, 16, 17, 18, 20, 22 and 24 h after the morning dose. One of the main objectives of this study part was to compare the levels of T and DHT measured with a validated method in NaF/Na2 EDTA plasma to the levels measured in serum.
Pharmacokinetic (PK) parameters were assessed using samples collected on day 84: Ln-transformed area under the concentration–time curve (AUC0–24) and the maximum concentration of analyte (Cmax0–24) obtained with the study samples collected from 0–24 h after the morning dose of TU on last study day 84 were used to compare the levels of testosterone, DHT, TU and DHTU measured in serum in comparison to the levels measured in plasma.
Data reported in Table 5 were obtained from a cohort of 15 subjects undergoing a clinical study of a novel formulation of TU. Table 5 presents summaries of the comparison of the PK results for T and DHT obtained using serum and plasma samples for each analyte. Figure 2 presents the mean analyte concentrations obtained from the serum and plasma samples.

[3] = conclusion of a published method validation; cited from earlier work
[4] = TU to T conversion depending on the TU spiking solvent used; assay type: in vitro ADME, human
Description: We decided to investigate further to better understand the discordance between the conclusions. Literature descriptions of sample preparations include a stock solution prepared in ethanol and diluted in phosphate buffer saline (PBS). In the experiments carried out in the study reported here, it was observed that the stock and spiking solution preparation is very important. A stock solution of TU was prepared in ethanol and diluted with PBS prior to being added to whole blood. Results from this procedure were compared with those typically used in our experiments with TU stock prepared and diluted using methanol, prior to being added to whole blood. It was observed that a precipitate occurred in the PBS solution after a freeze–thaw cycle.
To investigate this effect further, freshly collected whole blood was collected in conventional serum tubes and in NaF/K2C2O4 tubes. Each whole blood tube was fortified with TU at a final concentration of 60,000 ng/dl with solution prepared either in methanol or in ethanol/PBS; each experiment was performed in triplicate. Serum samples were incubated at room temperature for 30 and 60 min, and plasma samples were incubated for 10, 30 and 60 min at 4°C. T and TU were analyzed in the plasma and serum samples obtained.

[5] = in serum or plasma, sometimes; cited from earlier work

## CCCCCCCCCCC(=O)O[C@H]1CCC2C3CCC4CC(=O)CC[C@]4(C)C3CC[C@@]21C (stereo partly drawn) [DHTU, 5-alpha-dihydrotestosterone undecanoate]
[1]; freeze–thaw cycles
  increase of the T and DHT concentrations (degradation of TU and DHTU into T or DHT): No increase

## C[C@]12CC[C@H]3[C@@H](CCC4=CC(=O)CC[C@@]43C)[C@@H]1CC[C@@H]2O [Testosterone, testosterone]
[1]; High QC 2300.0 ng/dL fortified with TU, Freeze/Thaw at -20°C (4 Cycles)
  % Bias of testosterone concentration: -3.3%
[1]; High QC 2300.0 ng/dL fortified with TU, Freeze/Thaw at -80°C (4 Cycles)
  % Bias of testosterone concentration: -3.4%
[1]; High QC 2300.0 ng/dL fortified with TU, Long-Term at -20°C for 14 days
  % Bias of testosterone concentration: -1.8%
[1]; High QC 2300.0 ng/dL fortified with TU, Long-Term at -80°C for 14 days
  % Bias of testosterone concentration: -3.1%
[1]; High QC 2300.0 ng/dL fortified with TU, Post-Preparative at RT for 69 hrs
  % Bias of testosterone concentration: 10.1%
[1]; High QC 2300.0 ng/dL fortified with TU, Short-Term at 4°C for 21 hrs
  % Bias of testosterone concentration: 0.6%
[1]; High QC 2300.0 ng/dL fortified with TU, Short-Term at RmT for 23 hrs
  % Bias of testosterone concentration: 0.2%
[1]; High QC 2300.0 ng/dL fortified with TU, Whole Blood on ice for 110 min
  % Bias of testosterone concentration: 8.3%
[1]; Low QC 40.0 ng/dL fortified with TU, Freeze/Thaw at -20°C (4 Cycles)
  % Bias of testosterone concentration: -5.8%
[1]; Low QC 40.0 ng/dL fortified with TU, Freeze/Thaw at -80°C (4 Cycles)
  % Bias of testosterone concentration: -5.8%
[1]; Low QC 40.0 ng/dL fortified with TU, Long-Term at -20°C for 14 days
  % Bias of testosterone concentration: -1.9%
[1]; Low QC 40.0 ng/dL fortified with TU, Long-Term at -80°C for 14 days
  % Bias of testosterone concentration: 2.1%
[1]; Low QC 40.0 ng/dL fortified with TU, Post-Preparative at RT for 69 hrs
  % Bias of testosterone concentration: 14.0%
[1]; Low QC 40.0 ng/dL fortified with TU, Short-Term at 4°C for 21 hrs
  % Bias of testosterone concentration: -4.2%
[1]; Low QC 40.0 ng/dL fortified with TU, Short-Term at RmT for 23 hrs
  % Bias of testosterone concentration: -2.5%
[1]; Low QC 40.0 ng/dL fortified with TU, Whole Blood on ice for 110 min
  % Bias of testosterone concentration: -11.1%
[2]
  Ratio (serum/plasma) of AUC0–24: 130.02%
  Ratio (serum/plasma) of Cmax0–24: 134.01%

## CCCCCCCCCCC(=O)O[C@H]1CCC2C3CCC4=CC(=O)CC[C@]4(C)C3CC[C@@]21C (stereo partly drawn) [TU, Testosterone undecanoate]
[1]; freeze–thaw cycles
  increase of the T and DHT concentrations (degradation of TU and DHTU into T or DHT): No increase
[3]
  stability of TU in blood: stable
[4]; whole blood spiked with TU in PBS, 60,000 ng/dl, 30 min serum RT
  Mean TU Concentration: 3991.0 ng/dL
[4]; whole blood spiked with TU in PBS, 60,000 ng/dl, 60 min serum RT
  Mean TU Concentration: 5892.3 ng/dL
[4]; whole blood spiked with TU in PBS, 60,000 ng/dl, NaF/K2C2O4 plasma 10 min 4°C
  Mean TU Concentration: 74408.7 ng/dL
[4]; whole blood spiked with TU in PBS, 60,000 ng/dl, NaF/K2C2O4 plasma 30 min 4°C
  Mean TU Concentration: 54088.0 ng/dL
[4]; whole blood spiked with TU in PBS, 60,000 ng/dl, NaF/K2C2O4 plasma 60 min 4°C
  Mean TU Concentration: 26618.7 ng/dL
[4]; whole blood spiked with TU in methanol, 60,000 ng/dl, 30 min serum RT
  Mean TU Concentration: 97110.3 ng/dL
[4]; whole blood spiked with TU in methanol, 60,000 ng/dl, 60 min serum RT
  Mean TU Concentration: 96132.3 ng/dL
[4]; whole blood spiked with TU in methanol, 60,000 ng/dl, NaF/K2C2O4 plasma 10 min 4°C
  Mean TU Concentration: 97235.0 ng/dL
[4]; whole blood spiked with TU in methanol, 60,000 ng/dl, NaF/K2C2O4 plasma 30 min 4°C
  Mean TU Concentration: 95628.0 ng/dL
[4]; whole blood spiked with TU in methanol, 60,000 ng/dl, NaF/K2C2O4 plasma 60 min 4°C
  Mean TU Concentration: 93816.3 ng/dL
[5]
  TU concentration higher than the testosterone concentration: 20- to 30 times

## C[C@]12CCC(=O)C[C@@H]1CC[C@@H]1[C@@H]2CC[C@]2(C)[C@@H](O)CC[C@@H]12 [Dihydrotestosterone, dihydrotestosterone]
[1]; High QC 430.0 ng/dL fortified with TU, Freeze/Thaw at -20°C (4 Cycles)
  % Bias of dihydrotestosterone concentration: -10.2%
[1]; High QC 430.0 ng/dL fortified with TU, Freeze/Thaw at -80°C (4 Cycles)
  % Bias of dihydrotestosterone concentration: -10.7%
[1]; High QC 430.0 ng/dL fortified with TU, Long-Term at -20°C for 14 days
  % Bias of dihydrotestosterone concentration: -4.4%
[1]; High QC 430.0 ng/dL fortified with TU, Long-Term at -80°C for 14 days
  % Bias of dihydrotestosterone concentration: -5.4%
[1]; High QC 430.0 ng/dL fortified with TU, Post-Preparative at RT for 69 hrs
  % Bias of dihydrotestosterone concentration: 8.6%
[1]; High QC 430.0 ng/dL fortified with TU, Short-Term at 4°C for 21 hrs
  % Bias of dihydrotestosterone concentration: -0.5%
[1]; High QC 430.0 ng/dL fortified with TU, Short-Term at RT for 23 hrs
  % Bias of dihydrotestosterone concentration: 2.5%
[1]; High QC 430.0 ng/dL fortified with TU, Whole Blood on Ice for 110 min
  % Bias of dihydrotestosterone concentration: 0.3%
[1]; Low QC 19.2 ng/dL fortified with TU, Freeze/Thaw at -20°C (4 Cycles)
  % Bias of dihydrotestosterone concentration: -14.6%
[1]; Low QC 19.2 ng/dL fortified with TU, Freeze/Thaw at -80°C (4 Cycles)
  % Bias of dihydrotestosterone concentration: -14.9%
[1]; Low QC 19.2 ng/dL fortified with TU, Long-Term at -20°C for 14 days
  % Bias of dihydrotestosterone concentration: -8.7%
[1]; Low QC 19.2 ng/dL fortified with TU, Long-Term at -80°C for 14 days
  % Bias of dihydrotestosterone concentration: -8.1%
[1]; Low QC 19.2 ng/dL fortified with TU, Post-Preparative at RT for 69 hrs
  % Bias of dihydrotestosterone concentration: 5.1%
[1]; Low QC 19.2 ng/dL fortified with TU, Short-Term at 4°C for 21 hrs
  % Bias of dihydrotestosterone concentration: -9.1%
[1]; Low QC 19.2 ng/dL fortified with TU, Short-Term at RT for 23 hrs
  % Bias of dihydrotestosterone concentration: -6.1%
[1]; Low QC 19.2 ng/dL fortified with TU, Whole Blood on Ice for 110 min
  % Bias of dihydrotestosterone concentration: -6.1%
[2]
  Ratio (serum/plasma) of AUC0–24: 122.40%
  Ratio (serum/plasma) of Cmax0–24: 130.61%

## C[C@]12CC[C@H]3[C@@H](CCC4=CC(=O)CC[C@@]43C)[C@@H]1CC[C@@H]2O[C@@H]1O[C@H](C(=O)O)[C@@H](O)[C@H](O)[C@H]1O [Testosterone glucuronide, testosterone glucuronide]
[1]; low and high QCs fortified with testosterone glucuronide, freeze–thaw cycles, room temperature, 4°C, long-term storage at -20 or -80°C
  impact on the quantitation of T and DHT: no impact
